Reference: patent US9902696B2, “1,4-substituted piperidine derivatives” (Cephalon, Inc., priority 2015, dated 2018)
Where a name gives a salt, the structure may show the parent alone.

The compounds below were run against T1, recombinant human baculovirus-expressed GST-tagged FASN (Homo sapiens, UniProt P49327) (assay: FASN enzyme activity assay, fluorescence-based detection of CoA with CPM). Settings: 5 nM FASN, 150 μM NADPH, 10 μM acetyl-CoA, 25 μM malonyl-CoA, 90 minutes incubation; read-out: IC50 data for Additional Compounds of Formulae I-V(a): Activity.
T1 construct: GST
T1 sequence (P49327 whole entry): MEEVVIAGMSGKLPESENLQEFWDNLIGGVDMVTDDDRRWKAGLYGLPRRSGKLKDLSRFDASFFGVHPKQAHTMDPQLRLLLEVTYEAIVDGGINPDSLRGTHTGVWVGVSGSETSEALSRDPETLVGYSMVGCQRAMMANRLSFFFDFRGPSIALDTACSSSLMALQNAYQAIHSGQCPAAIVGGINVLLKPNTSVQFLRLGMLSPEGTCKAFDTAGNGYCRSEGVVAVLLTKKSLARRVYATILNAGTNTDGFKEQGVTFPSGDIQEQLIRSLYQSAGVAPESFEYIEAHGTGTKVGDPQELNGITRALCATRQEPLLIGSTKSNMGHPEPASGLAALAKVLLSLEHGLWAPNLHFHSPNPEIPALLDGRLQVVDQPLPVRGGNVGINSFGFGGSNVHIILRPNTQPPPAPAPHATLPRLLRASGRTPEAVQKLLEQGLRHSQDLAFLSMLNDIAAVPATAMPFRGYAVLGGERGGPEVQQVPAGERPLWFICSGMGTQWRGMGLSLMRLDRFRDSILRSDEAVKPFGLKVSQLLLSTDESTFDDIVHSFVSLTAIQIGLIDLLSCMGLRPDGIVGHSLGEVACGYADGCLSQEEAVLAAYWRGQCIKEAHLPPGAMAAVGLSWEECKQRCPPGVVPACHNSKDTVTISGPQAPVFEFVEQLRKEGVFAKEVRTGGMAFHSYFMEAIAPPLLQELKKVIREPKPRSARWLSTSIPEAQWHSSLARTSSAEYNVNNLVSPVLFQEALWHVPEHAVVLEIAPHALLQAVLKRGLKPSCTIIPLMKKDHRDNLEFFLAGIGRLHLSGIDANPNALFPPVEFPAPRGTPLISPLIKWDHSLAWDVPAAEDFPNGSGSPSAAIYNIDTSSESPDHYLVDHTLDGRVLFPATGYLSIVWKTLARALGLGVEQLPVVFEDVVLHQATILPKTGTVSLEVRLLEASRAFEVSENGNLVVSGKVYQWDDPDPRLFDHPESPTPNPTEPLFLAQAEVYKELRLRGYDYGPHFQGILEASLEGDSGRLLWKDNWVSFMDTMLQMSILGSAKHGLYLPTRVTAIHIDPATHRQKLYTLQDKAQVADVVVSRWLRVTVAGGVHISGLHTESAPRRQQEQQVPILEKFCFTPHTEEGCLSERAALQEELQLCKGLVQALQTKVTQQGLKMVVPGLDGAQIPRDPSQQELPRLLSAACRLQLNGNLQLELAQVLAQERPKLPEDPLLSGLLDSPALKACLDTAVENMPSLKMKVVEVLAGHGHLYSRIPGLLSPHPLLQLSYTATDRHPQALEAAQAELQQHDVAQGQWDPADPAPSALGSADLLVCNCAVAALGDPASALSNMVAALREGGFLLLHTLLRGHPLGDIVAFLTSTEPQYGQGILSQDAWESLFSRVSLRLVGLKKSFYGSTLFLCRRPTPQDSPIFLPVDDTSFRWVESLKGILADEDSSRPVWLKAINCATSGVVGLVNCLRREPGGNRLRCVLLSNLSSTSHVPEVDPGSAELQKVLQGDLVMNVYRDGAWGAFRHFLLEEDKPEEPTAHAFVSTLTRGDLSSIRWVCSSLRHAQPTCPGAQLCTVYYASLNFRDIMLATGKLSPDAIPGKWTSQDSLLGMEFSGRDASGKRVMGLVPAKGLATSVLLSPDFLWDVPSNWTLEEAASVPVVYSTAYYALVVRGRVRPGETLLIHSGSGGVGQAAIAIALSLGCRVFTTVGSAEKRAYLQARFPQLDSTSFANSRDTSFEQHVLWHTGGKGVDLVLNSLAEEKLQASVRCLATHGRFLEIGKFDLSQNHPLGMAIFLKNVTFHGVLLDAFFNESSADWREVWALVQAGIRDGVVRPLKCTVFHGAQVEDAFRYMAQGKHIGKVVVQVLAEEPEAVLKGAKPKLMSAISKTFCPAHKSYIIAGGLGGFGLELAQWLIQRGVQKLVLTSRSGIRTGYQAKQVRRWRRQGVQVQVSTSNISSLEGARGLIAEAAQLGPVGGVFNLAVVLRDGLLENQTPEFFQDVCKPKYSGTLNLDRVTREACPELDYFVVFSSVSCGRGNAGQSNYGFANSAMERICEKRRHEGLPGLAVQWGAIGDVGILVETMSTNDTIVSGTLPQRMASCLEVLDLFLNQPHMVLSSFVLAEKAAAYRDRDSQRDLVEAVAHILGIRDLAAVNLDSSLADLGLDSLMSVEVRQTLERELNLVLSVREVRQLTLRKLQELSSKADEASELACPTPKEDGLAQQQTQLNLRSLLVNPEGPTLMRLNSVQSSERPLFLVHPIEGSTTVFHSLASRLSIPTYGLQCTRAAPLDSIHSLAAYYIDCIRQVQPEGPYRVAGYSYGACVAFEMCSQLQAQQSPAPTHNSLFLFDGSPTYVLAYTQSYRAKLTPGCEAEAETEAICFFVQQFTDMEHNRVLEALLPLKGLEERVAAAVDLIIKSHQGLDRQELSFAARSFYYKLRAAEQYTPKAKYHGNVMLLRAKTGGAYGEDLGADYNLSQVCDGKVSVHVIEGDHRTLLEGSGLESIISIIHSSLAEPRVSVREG
Assay type: biochemical
Summary of the method: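 CoA product reacted with thiol-reactive CPM (diluted to 50 μM in 70% ethanol), read at 390/530 nm after 30 min. Preceding reaction: 90 min, 5 nM recombinant GST-FASN, 150 μM NADPH, 10 μM acetyl-CoA, 25 μM malonyl-CoA, pH 7.5 HEPES, 0.5% DMSO. IC50s fitted by nonlinear sigmoidal regression.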

IC50 | Structure (SMILES)
1 to 10 µM | Cc1c(-c2ccc(OC3CCN(C(=O)COC(C)C)CC3)cc2)ccc2cccnc12 [Example 624, 2-Isopropoxy-1-[4-[4-(8-methyl-7-quinolyl)phenoxy]-1-piperidyl]ethanone, HCl]
1 to 10 µM | Cc1c(-c2ccc(OC3CCN(C(=O)N4CCC(N5CCOCC5)CC4)CC3)cc2)ccc2cccnc12 [Example 534, [4-[4-(8-Methyl-7-quinolyl)phenoxy]-1-piperidyl]-(4-morpholino-1-piperidyl)methanone, HCl]
1 to 10 µM | CONC(=O)N1CCC(Oc2ccc(-c3ccc4nccn4c3C)cc2)CC1 [Example 611, N-Methoxy-4-[4-(5-methylimidazo[1,2-a]pyridin-6-yl)phenoxy]piperidine-1-carboxamide]

Same assay, conditions: 5 nM FASN, 150 μM NADPH, 10 μM acetyl-CoA, 25 μM malonyl-CoA, 90 minutes incubation; read-out: IC50 data for Compounds of Formulae I-V/V(a): Activity

Structure (SMILES) | IC50
O=C(C1CC1)N1CCC(Oc2ccc(-c3ccc4cccnc4c3Cl)cc2)CC1 [Example 59, {4-[4-(8-Chloroquinolin-7-yl)-phenoxy]-piperidin-1-yl}-cyclopropyl-methanone] | 0.001 to 0.099 µM
Cc1cnc(C)c2ccc(-c3ccc(OC4CCN(C(=O)[C@H]5CCCO5)CC4)cc3)cc12 [Example 471, [4-[4-(1,4-Dimethyl-6-isoquinolyl)phenoxy]-1-piperidyl]-[(2R)-tetrahydrofuran-2-yl]methanone, HCl] | 0.001 to 0.099 µM
CC(C)C(=O)N1CCC(S(=O)(=O)c2ccc(-c3ccc4ccncc4c3)cc2)CC1 [Example 513, 1-[4-(4-Isoquinolin-7-yl-benzenesulfonyl)-piperidin-1-yl]-2-methylpropan-1-one] | 1 to 10 µM
O=C([C@H]1CCCO1)N1CCC(Oc2ccc(-c3ccc4cnc(C5CC5)cc4c3)cc2)CC1 [Example 480, {4-[4-(3-Cyclopropylisoquinolin-6-yl)-phenoxy]-piperidin-1-yl}-(R)-tetra-hy drofuran-2-yl-methanone] | 0.001 to 0.099 µM
COc1cc(-c2cnc3ccccc3c2)ccc1OC1CCN(C(=O)C(C)C)CC1 [Example 197, 1-[4-(2-Methoxy-4-quinolin-3-yl-phenoxy)-piperidin-1-yl]-2-methyl-propan-1-one] | 1 to 10 µM
O=C(C1CC1)N1CCC(Oc2ccc(-c3ccc(Cl)c(Cl)c3)cc2)CC1 [Example 501, Cyclopropyl-[4-(3′,4′-dichlorobiphenyl-4-yloxy)-piperidin-1-yl]-methanone] | 1 to 10 µM
O=C(C1CCC1)N1CCC(Oc2ccc(-c3cnc4cccc(F)c4c3)cc2)CC1 [Example 31, Cyclobutyl-{4-[4-(5-fluoroquinolin-3-yl)-phenoxy]-piperidin-1-yl}-methanone] | 0.001 to 0.099 µM
Cc1c(-c2ccc(OC3CCN(C(=O)[C@H]4CC4(C)C)CC3)cc2)ccc2cccnc12 [Example 321, ((S)-2,2-Dimethylcyclopropyl)-{4-[4-(8-methyl-quinolin-7-yl)-phenoxy]-piperidin-1-yl}-methanone] | 0.1 to 0.999 µM
O=C([C@H]1CCCO1)N1CCC(Oc2ccc(-c3cnc4ccccc4c3Cl)cc2)CC1 [Example 71, {4-[4-(4-Chloroquinolin-3-yl)-phenoxy]-piperidin-1-yl}-(R)-tetrahydro-furan-2-yl-methanone] | 0.001 to 0.099 µM
O=C(C1CC1)N1CCC(Oc2ccc(-c3ccc4cccnc4c3OCCN3CCCC3)cc2)CC1 [Example 174, Cyclopropyl-(4-{4-[8-(2-pyrrolidin-1-yl-ethoxy)-quinolin-7-yl]-phenoxy}-piperidin-1-yl)-methanone, HCl] | 1 to 10 µM
O=C(C1OCCO1)N1CCC(Oc2ccc(-c3cnc4ccccc4c3)cc2)CC1 [Example 152, HCl] | 0.001 to 0.099 µM
CCC(=O)N1CCC(Oc2ccc(-c3ccc4cc(C)cnc4c3)cc2)CC1 [Example 280, 1-{4-[4-(3-Methylquinolin-7-yl)-phenoxy]-piperidin-1-yl}-propan-1-one] | 0.001 to 0.099 µM
O=C(C1CC1)N1CCC(Oc2ccc(-c3ccc4cccnc4c3F)cc2)CC1 [Example 23, Cyclopropyl-{4-[4-(8-fluoroquinolin-7-yl)-phenoxy]-piperidin-1-yl}-methanone] | 0.001 to 0.099 µM
CCC(=O)N1CCC(Oc2ccc(-c3ccc4cccnc4c3C)cc2F)CC1 [Example 225, 1-{4-[2-Fluoro-4-(8-methylquinolin-7-yl)-phenoxy]-piperidin-1-yl}-propan-1-one] | 0.001 to 0.099 µM
COc1cc2cc(-c3ccc(OC4CCN(C(=O)C5CC5)CC4)cc3)ccc2cn1 [Example 416, Cyclopropyl-{4-[4-(3-methoxyisoquinolin-6-yl)-phenoxy]-piperidin-1-yl}-methanone] | 0.1 to 0.999 µM
Cc1c(-c2ccc(OC3CCN(C(=O)C4CC4)CC3)cc2)ccc2cccnc12 [Example 37, Cyclopropyl-{4-[4-(8-methylquinolin-7-yl)-phenoxy]-piperidin-1-yl}-methanone] | 0.001 to 0.099 µM
O=C(c1ccccc1)N1CCC(Oc2ccc(-c3cnc4ccccc4c3)cc2)CC1 [Example 127, Phenyl-[4-(4-quinolin-3-yl-phenoxy)-piperidin-1-yl]-methanone, HCl] | 1 to 10 µM
O=C(c1ccco1)N1CCC(Oc2ccc(-c3cnc4ccccc4c3)cc2)CC1 [Example 111, HCl] | 1 to 10 µM
Cc1c(-c2ccc(OC3CCN(C(=O)C4(N)CC4)CC3)cc2)ccc2cccnc12 [Example 316, (1-Aminocyclopropyl)-{4-[4-(8-methyl-quinolin-7-yl)-phenoxy]-piperidin-1-yl}-methanone] | 0.001 to 0.099 µM
Cc1c(-c2ccc(OC3CCN(C(=O)C4CCCO4)CC3C)cc2)ccc2cccnc12 (stereo in doubt) [Example 377, {3-Methyl-4-[4-(8-methylquinolin-7-yl)-phenoxy]-piperidin-1-yl}-(R)-tetrahydrofuran-2-yl-methanone, TFA salt] | 0.001 to 0.099 µM

Other lines, results leading:

IC50 | Structure (SMILES)
1 to 10 µM | O=C(C1CCC1)N1CCC(Oc2ccc(-c3cncc(-c4ccccc4)c3)cc2)CC1 [Example 385, Cyclobutyl-{4-[4-(5-phenylpyridin-3-yl)-phenoxy]-piperidin-1-yl}-methanone, TFA salt]
0.001 to 0.099 µM | COCCCOc1c(-c2ccc(OC3CCN(C(=O)[C@H]4CCCO4)CC3)cc2)ccc2cccnc12 [Example 187, [4-[4-[8-(3-Methoxypropoxy)-7-quinolyl]phenoxy]-1-piperidyl]-[(2R)-tetrahydrofuran-2-yl]methanone, HCl]
0.001 to 0.099 µM | O=C(C1CC1)N1CCC(Oc2ccc(-c3ccc4cccnc4c3Cl)cc2F)CC1 [Example 222, {4-[4-(8-Chloroquinolin-7-yl)-2-fluorophenoxy]-piperidin-1-yl}-cyclopropyl-methanone]
1 to 10 µM | CCC(=O)N1CCC(Oc2ccc(-c3cccc(-c4ccccn4)c3C)cc2)CC1 [Example 406, 1-[4-(2′-Methyl-3′-pyridin-2-yl-biphenyl-4-yloxy)-piperidin-1-yl]-propan-1-one; TFA salt]
0.001 to 0.099 µM | CC(C)C(=O)N1CCC(Oc2ccc(-c3cnc4ccccc4c3)cc2F)CC1 [Example 7, 1-[4-(2-Fluoro-4-quinolin-3-yl-phenoxy)-piperidin-1-yl]-2-methyl-propan-1-one]
0.001 to 0.099 µM | O=C([C@H]1CCCO1)N1CCC(Oc2ccc(-c3ccc4cncn4c3)cc2)CC1 [Example 298, [4-(4-Imidazo[1,5-a]pyridin-6-yl-phenoxy)-piperidin-1-yl]-(R)-tetrahydro-furan-2-yl-methanone]
0.001 to 0.099 µM | O=C(C1CC1)N1CCC(Oc2ccc(-c3cnc4ccccc4c3)c(Cl)c2)CC1 [Example 205, [4-(3-Chloro-4-quinolin-3-yl-phenoxy)-piperidin-1-yl]-cyclopropyl-methanone]
